Active and inactive are the calls of the source.
Columns and labels:
[1] = molecular target: Serine/threonine-protein kinase PLK1 (Homo sapiens, UniProt P53350)
[2] = molecular target: T1, Thyroid hormone receptor-associated protein 3 (Homo sapiens, UniProt Q9Y2W1)
T1 sequence (Q9Y2W1 whole entry): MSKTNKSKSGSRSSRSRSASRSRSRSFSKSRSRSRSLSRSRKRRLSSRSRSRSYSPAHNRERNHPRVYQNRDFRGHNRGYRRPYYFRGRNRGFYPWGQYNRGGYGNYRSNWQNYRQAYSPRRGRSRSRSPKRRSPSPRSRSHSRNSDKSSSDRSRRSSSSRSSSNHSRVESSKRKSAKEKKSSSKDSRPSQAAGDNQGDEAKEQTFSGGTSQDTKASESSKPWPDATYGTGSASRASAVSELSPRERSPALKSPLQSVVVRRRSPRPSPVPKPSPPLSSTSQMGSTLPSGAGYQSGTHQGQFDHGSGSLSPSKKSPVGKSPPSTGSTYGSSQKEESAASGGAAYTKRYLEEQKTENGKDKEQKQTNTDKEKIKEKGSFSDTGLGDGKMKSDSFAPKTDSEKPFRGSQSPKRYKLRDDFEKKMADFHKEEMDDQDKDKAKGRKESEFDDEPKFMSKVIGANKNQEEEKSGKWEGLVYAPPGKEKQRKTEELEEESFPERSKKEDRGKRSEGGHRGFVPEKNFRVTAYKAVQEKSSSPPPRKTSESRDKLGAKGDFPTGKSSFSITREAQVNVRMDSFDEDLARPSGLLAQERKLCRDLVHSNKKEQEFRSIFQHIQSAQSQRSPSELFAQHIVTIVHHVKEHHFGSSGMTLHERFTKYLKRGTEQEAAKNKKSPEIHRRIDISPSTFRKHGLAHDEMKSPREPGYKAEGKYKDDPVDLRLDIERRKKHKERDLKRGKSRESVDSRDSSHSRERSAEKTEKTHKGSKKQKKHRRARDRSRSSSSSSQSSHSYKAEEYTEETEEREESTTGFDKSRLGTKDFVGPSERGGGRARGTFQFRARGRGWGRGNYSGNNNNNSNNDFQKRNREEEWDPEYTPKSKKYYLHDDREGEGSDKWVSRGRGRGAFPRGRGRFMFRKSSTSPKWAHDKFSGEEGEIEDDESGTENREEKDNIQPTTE

[3] = molecular target: Dual specificity protein kinase CLK4 (Homo sapiens, UniProt Q9HAZ1)
Dual specificity protein kinase CLK4, sequence (Q9HAZ1 whole entry): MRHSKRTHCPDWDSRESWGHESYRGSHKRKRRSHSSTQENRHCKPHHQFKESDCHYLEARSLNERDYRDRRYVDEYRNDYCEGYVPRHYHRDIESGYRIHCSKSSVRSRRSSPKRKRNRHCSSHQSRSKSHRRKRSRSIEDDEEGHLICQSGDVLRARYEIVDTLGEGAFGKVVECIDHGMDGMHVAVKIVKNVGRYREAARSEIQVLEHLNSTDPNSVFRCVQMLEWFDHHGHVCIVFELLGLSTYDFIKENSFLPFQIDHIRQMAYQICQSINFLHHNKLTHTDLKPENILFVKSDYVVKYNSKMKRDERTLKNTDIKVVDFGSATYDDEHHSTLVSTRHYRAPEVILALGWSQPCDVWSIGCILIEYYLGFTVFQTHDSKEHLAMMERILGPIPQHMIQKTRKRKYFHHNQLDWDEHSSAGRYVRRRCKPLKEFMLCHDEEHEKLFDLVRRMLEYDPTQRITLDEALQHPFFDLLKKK

[4] = molecular target: T2, Phosphatidylinositol 5-phosphate 4-kinase type-2 alpha (Homo sapiens, UniProt P48426)
T2 sequence (P48426 whole entry): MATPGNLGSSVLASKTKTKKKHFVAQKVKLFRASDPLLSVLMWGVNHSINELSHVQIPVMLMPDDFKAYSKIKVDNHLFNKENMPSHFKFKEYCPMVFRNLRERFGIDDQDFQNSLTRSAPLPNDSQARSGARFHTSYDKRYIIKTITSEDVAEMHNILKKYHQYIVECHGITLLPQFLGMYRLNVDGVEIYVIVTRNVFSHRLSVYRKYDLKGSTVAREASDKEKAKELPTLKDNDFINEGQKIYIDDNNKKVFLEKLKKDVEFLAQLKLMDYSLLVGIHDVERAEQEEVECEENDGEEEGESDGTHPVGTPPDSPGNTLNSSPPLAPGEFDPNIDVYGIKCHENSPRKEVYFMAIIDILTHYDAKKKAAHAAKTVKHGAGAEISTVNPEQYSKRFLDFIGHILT

[5] = molecular target: Guanine nucleotide-binding protein G(i) subunit alpha-2 (Homo sapiens, UniProt P04899)
Guanine nucleotide-binding protein G(i) subunit alpha-2, sequence (P04899 whole entry): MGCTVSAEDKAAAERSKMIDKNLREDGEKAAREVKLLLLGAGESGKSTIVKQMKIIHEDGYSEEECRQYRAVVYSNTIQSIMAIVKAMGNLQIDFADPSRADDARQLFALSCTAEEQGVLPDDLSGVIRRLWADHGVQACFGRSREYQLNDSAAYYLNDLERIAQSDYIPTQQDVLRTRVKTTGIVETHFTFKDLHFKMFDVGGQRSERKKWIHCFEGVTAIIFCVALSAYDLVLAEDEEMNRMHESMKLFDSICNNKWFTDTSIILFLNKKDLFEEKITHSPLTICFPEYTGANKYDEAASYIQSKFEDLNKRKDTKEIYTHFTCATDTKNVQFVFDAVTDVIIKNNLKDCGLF

[6] = molecular target: T3, UMP-CMP kinase (Homo sapiens, UniProt P30085)
T3 sequence (P30085 whole entry): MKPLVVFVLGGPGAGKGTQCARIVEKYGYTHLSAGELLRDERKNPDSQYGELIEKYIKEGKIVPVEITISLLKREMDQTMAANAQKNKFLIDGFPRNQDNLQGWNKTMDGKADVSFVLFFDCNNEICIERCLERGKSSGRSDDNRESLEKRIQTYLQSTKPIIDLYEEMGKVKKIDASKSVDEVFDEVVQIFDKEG

[7] = molecular target: Protein kinase C theta type (Homo sapiens, UniProt Q04759)
Protein kinase C theta type, sequence (Q04759 whole entry): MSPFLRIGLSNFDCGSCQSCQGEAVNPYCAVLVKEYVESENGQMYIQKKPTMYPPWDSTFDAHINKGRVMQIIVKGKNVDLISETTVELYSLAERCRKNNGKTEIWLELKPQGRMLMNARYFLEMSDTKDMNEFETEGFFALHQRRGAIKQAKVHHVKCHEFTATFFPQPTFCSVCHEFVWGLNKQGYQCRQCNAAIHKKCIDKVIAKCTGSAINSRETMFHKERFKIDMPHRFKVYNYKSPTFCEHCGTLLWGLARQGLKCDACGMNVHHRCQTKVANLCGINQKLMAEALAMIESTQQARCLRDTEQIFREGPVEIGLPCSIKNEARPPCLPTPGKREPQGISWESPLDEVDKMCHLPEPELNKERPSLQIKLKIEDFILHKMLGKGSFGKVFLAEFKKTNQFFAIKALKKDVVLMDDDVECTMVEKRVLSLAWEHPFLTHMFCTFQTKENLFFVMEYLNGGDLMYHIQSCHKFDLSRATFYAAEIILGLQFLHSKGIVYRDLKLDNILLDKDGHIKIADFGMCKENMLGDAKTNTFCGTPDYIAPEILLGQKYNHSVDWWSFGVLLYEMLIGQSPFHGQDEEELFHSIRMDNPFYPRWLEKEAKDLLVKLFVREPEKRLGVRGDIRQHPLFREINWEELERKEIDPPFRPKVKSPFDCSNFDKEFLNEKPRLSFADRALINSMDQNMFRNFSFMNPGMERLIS

[8] = molecular target: Cyclin-dependent kinase 2 (Homo sapiens, UniProt P24941)
[9] = molecular target: T4, Cyclin-dependent kinase-like 5 (Homo sapiens, UniProt O76039)
T4 sequence (O76039 whole entry): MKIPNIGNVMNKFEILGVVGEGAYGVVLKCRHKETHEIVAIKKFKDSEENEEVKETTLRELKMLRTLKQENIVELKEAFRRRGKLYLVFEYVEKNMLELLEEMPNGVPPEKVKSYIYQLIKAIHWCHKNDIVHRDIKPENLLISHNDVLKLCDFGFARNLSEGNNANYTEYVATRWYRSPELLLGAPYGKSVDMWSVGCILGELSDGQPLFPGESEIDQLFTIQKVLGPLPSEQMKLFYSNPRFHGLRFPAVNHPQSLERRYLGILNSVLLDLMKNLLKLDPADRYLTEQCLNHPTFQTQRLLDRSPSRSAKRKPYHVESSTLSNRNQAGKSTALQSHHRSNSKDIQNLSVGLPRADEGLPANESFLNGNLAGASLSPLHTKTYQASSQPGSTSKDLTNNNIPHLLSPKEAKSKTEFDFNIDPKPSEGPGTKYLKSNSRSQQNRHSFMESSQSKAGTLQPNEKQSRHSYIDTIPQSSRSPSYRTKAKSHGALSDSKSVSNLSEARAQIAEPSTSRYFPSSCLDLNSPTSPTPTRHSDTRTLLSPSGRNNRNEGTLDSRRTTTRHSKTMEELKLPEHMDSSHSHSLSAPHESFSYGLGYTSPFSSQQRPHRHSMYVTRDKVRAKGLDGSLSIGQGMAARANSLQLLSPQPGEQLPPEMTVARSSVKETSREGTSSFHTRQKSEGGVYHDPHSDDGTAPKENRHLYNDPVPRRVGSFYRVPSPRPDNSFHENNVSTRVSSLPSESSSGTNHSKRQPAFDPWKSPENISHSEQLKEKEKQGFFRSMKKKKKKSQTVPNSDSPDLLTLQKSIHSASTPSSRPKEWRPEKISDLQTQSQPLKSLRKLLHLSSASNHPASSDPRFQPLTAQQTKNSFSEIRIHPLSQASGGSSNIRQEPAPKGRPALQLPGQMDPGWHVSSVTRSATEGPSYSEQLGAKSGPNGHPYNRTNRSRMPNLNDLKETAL
Further: in the data inactive means no Kd found up to 30 µM.

Serine/threonine-protein kinase PLK1, sequence (P53350 whole entry): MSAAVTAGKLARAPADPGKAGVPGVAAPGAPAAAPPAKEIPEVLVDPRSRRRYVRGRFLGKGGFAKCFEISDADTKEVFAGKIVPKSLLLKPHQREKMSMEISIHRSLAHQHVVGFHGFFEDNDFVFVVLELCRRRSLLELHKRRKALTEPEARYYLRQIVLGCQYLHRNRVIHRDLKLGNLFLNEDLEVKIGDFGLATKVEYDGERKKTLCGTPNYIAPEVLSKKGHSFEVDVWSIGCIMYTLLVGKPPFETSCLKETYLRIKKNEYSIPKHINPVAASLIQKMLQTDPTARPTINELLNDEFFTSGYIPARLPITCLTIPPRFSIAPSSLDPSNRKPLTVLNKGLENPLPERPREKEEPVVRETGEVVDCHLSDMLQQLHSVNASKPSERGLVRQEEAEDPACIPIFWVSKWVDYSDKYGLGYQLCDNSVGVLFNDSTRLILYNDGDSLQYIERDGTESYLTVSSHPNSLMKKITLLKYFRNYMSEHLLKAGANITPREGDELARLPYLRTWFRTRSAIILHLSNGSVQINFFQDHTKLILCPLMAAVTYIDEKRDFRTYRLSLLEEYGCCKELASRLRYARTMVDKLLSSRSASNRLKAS

Row | Kd [1] | Kd [2] | Kd [3] | Kd [4] | Kd [5] | Kd [6] | Kd [7] | Kd [8] | Kd [9] | SMILES
1 | > 30 µM (inactive) | > 30 µM (inactive) | > 30 µM (inactive) | > 30 µM (inactive) | > 30 µM (inactive) | > 30 µM (inactive) | > 30 µM (inactive) | > 30 µM (inactive) | > 30 µM (inactive) | COCCNCc1ccc(-c2cc3nccc(Oc4ccc(NC(=S)NC(=O)Cc5ccc(F)cc5)cc4F)c3s2)nc1 [GLESATINIB]
2 | > 30 µM (inactive) | > 30 µM (inactive) | > 30 µM (inactive) | > 30 µM (inactive) | > 30 µM (inactive) | > 30 µM (inactive) | > 30 µM (inactive) | > 30 µM (inactive) | > 30 µM (inactive) | COc1cc2nccc(Oc3ccc(NC(=O)Nc4cc(C)on4)c(Cl)c3)c2cc1OC [TIVOZANIB]
3 | > 30 µM (inactive) | > 30 µM (inactive) | > 30 µM (inactive) | > 30 µM (inactive) | > 30 µM (inactive) | > 30 µM (inactive) | > 30 µM (inactive) | > 30 µM (inactive) | > 30 µM (inactive) | CC(=O)Nc1cccc(-n2c(=O)n(C3CC3)c(=O)c3c(Nc4ccc(I)cc4F)n(C)c(=O)c(C)c32)c1 [TRAMETINIB]
